From patent US12247022B2, “Combinations for treatment of NASH/NAFLD and related diseases” (Pfizer Inc., priority 2018, dated 2025)

Experiments:
[1] = tested on: sterol regulatory element-binding protein 1c (SREBP-1c); assay: Hepatic lipogenic gene expression (qPCR), Western diet fed rats: SREBP-1c; type: in vivo, rat; details: Actb housekeeping gene, Day 28 liver
Procedure: (§1) A randomized, vehicle-controlled, 8-parallel arm study was conducted in male Sprague-Dawley rats (Charles River (Boston, MA)) to obtain circulating and hepatic TG levels. Standard laboratory conditions were used to house 96 rats (˜200 g); they were double housed and kept under 12:12-hour reverse light-dark schedule (lights off at 8:00 AM). Rats were randomized into chow or Western diet groups and dose groups upon arrival and were given a 14-day lead-in period on either standard rat chow or Western diet prior to the start of the study. Standard Laboratory Rodent chow diet, 5053, was from LabDiet (PMI, St Louis, Missouri). Western Diet, D12079Bi, was from Research Diets (New Brunswick, New Jersey).
(§2) Starting on Day 1 of the study, rats were dosed orally (10 mL/kg) with either vehicle control (0.5% MC (wt/volume %) in dionized water), low or high doses of Compound A (1 mg/kg or 10 mg/kg QD, respectively), low or high doses of Compound D (5 mg/kg or 30 mg/kg BID respectively), or co-administration of low doses (Compound A at 1 mg/kg QD and Compound D at 5 mg/kg BID), or co-administration of high doses (Compound A at 10 mg/kg QD and Compound D at 30 mg/kg BID) […]
(§3) Another portion of the pulverized liver was processed and analyzed for lipogenic gene expression. Rat taqman probes against ACC1, FASN, SCD1, PCSK9 and SREBP-1c were all assessed using Actb as housekeeping gene on qPCR.

[2] = tested on: proprotein convertase subtilisin/kexin type 9 (PCSK9); assay: Hepatic lipogenic gene expression (qPCR), Western diet fed rats: PCSK9; type: in vivo, rat; details: Actb housekeeping gene, Day 28 liver
Procedure: as §1, §2, §3

CCOc1cccnc1Oc1cncc(-c2ncc(C(=O)N[C@H]3CCOC3)cn2)c1 [Compound D, (S)-2-(5-((3-ethoxypyridin-2-yl)oxy)pyridin-3-yl)-N-(tetrahydrofuran-3-yl)pyrimidine-5-carboxamide]
hepatic SREBP1 gene expression relative to Western Diet fed and vehicle treated animals [1]: decreased expression
hepatic PCSK9 gene expression relative to Western Diet fed and vehicle treated animals [2]: decreased expression
